The PolyMetriX glass transition set

Row | SMILES | glass transition temperature
1 | *Oc1ccc(Oc2ccc(/C=N/c3ccc(Oc4ccc(/N=C/c5ccc(*)cc5)cc4)cc3)cc2)cc1 (repeat unit) | 120.00 °C
2 | */C=C/c1ccc2c(c1)C(CCCCCCOc1ccc3ccc(=O)oc3c1)(CCCCCCOc1ccc3ccc(=O)oc3c1)c1cc(/C=C/c3ccc4c(c3)C(CCCCCC)(CCCCCC)c3cc(*)ccc3-4)ccc1-2 (repeat unit) | 115.00 °C
3 | *Nc1cccc2c(NC(=O)c3ccc(NC(=O)c4ccc([Si](C)(C)c5ccc(C(=O)Nc6ccc(C(*)=O)cc6)cc5)cc4)cc3)cccc12 (repeat unit) | 378.00 °C
4 | *Oc1ccc(CNC(=O)c2cccc(C(=O)NCc3ccc(OC4COC5C(*)COC45)cc3)c2)cc1 (repeat unit) | 83.00 °C
5 | *c1ccc(Oc2ccc(-n3c(=O)c4c(Oc5ccc(OCCCCCCCC)cc5)c5c(=O)n(*)c(=O)c5c(Oc5ccc(OCCCCCCCC)cc5)c4c3=O)cc2)cc1 (repeat unit) | 234.50 °C
6 | *C(=O)c1ccc2c(c1)C(=O)N(c1ccc(Cc3ccc(Cc4ccc(Cc5ccc(N6C(=O)c7ccc(*)cc7C6=O)cc5)cc4)cc3)cc1)C2=O (repeat unit) | 302.00 °C
7 | *O[Si](*)(C)CCCC(=O)O (repeat unit) | -29.00 °C
8 | *c1ccc(Oc2cc3ccccc3cc2Oc2ccc(N3C(=O)c4ccc(Oc5ccccc5Oc5ccc6c(c5)C(=O)N(*)C6=O)cc4C3=O)cc2)cc1 (repeat unit) | 216.00 °C
9 | *Oc1ccc(CC(NC(=O)Cc2ccc(OC(=O)CCCCCCCCC(*)=O)cc2)C(=O)OCC)cc1 (repeat unit) | 43.00 °C
10 | */C=C/C(C)(C(=O)OC)C(*)C (repeat unit) | 34.00 °C
11 | *c1ccc(Oc2ccc(C(=O)c3ccc(Oc4ccc(C(=O)c5ccc(Oc6ccc(-c7nc8ccccc8n7-c7ccc(-n8c(*)nc9ccccc98)cc7)cc6)cc5)cc4)cc3)cc2)cc1 (repeat unit) | 223.00 °C
12 | *c1ccc(Oc2ccc(C3(c4ccc(Oc5ccc(-c6nnc(*)c7c(-c8ccc(F)cc8)c(-c8ccc(F)cc8)c(-c8ccc(F)cc8)c(-c8ccc(F)cc8)c67)cc5)cc4)c4ccccc4-c4ccccc43)cc2)cc1 (repeat unit) | 321.00 °C
13 | *c1ccc(-c2ccc(-c3ccc(-c4ccc(-c5cc(-c6ccccc6)c6cc(-c7ccc8nc(*)cc(-c9ccccc9)c8c7)ccc6n5)cc4)cc3)cc2)cc1 (repeat unit) | 355.00 °C
14 | *Nc1ccc(NC(=O)CCCCC(*)=O)cc1 (repeat unit) | 133.00 °C
15 | *c1ccc(OC(=O)c2cccc(C(=O)Oc3ccc(C4(*)OC(=O)c5ccccc54)cc3C)c2)c(C)c1 (repeat unit) | 273.00 °C
16 | *CC(*)(C)C(=O)OCCCCCOc1ccc2cc(C(=O)Oc3ccccc3)ccc2c1 (repeat unit) | 48.00 °C
17 | *OC(F)(F)C(F)(F)C(*)(F)F (repeat unit) | -109.00 °C
18 | *C(F)C(*)C(F)(F)F (repeat unit) | 87.00 °C
19 | *CC(*)c1ccc(COCCO)cc1 (repeat unit) | 46.00 °C
20 | *Oc1ccc(NC(=O)c2ccc(Oc3ccc(C(C)(C)c4ccc(C(C)(C)c5ccc(Oc6ccc(C(=O)Nc7ccc(Oc8ccc(-c9ccc(*)cc9)cc8)cc7)cc6)cc5)cc4)cc3)cc2)cc1 (repeat unit) | 177.00 °C
21 | *O[Si](C)(C)O[Si](C)(C)O[Si](C)(C)O[Si](C)(C)O[Si](C)(C)O[Si](C)(C)OC1=C(*)c2cccc3cccc1c23 (repeat unit) | -93.00 °C
22 | *C(=O)Oc1ccc(OCCCCCCCCCCCCOc2ccc(OC(=O)c3ccc4c(c3)C(=O)N(c3ccc(S(=O)(=O)c5ccc(N6C(=O)c7ccc(*)cc7C6=O)cc5)cc3)C4=O)cc2)cc1 (repeat unit) | 140.00 °C
23 | *C(=O)c1ccc2c(c1)C(=O)N(c1ccc(Cl)c(N3C(=O)c4ccc(*)cc4C3=O)c1)C2=O (repeat unit) | 305.00 °C
